Laboratory results taken from patent publication US10604554B2, “Double-acylated GLP-1 derivatives” (Novo Nordisk A/S, priority 2012, dated 2020).
Where two headings read alike, the source gives them in different places. Numbered stars: 1 amine (or outer) side, 2 acyl side, 3 side chain; on linkers, the order of the positions; unused ones are H or OH. Square brackets hold non-standard residues; d marks the D form. Side chains are listed from the residue outwards. Peptide text beside a SMILES is read from it. * marks the point of attachment. Decanoyl(10-(4-HOOC-PhO)) = O=C(O)c1ccc(OCCCCCCCCCC(=O)*)cc1; γGlu = O=C(O)[C@H](CCC(=O)[*:2])N[*:1]; εLys = N[C@@H](CCCCN[*:1])C(=O)[*:2]; AEEA = NCCOCCOCC(=O)O; Aib = CC(C)(N)C(=O)O

Target: T1, human GLP-1 receptor (Homo sapiens, UniProt P43220)
T1 construct: expressed in transfected cells; host or cells: BHK cells, clone FCW467-12A/KZ10-1 (parent line BHKTS13), further transfected with CRE luciferase
Assay: In vitro potency (AlphaScreen cAMP, membranes)
Assay type: biochemical
Procedure: The purpose of this example is to test the activity, or potency, of the GLP-1 derivatives in vitro.
Purified plasma membranes from a stable transfected cell line, BHK467-12A (tk-ts13), expressing the human GLP-1 receptor were stimulated with the GLP-1 analogue or derivative in question, and the potency of cAMP production was measured using the AlphaScreen™ cAMP Assay Kit from Perkin Elmer Life Sciences. The basic principle of the AlphaScreen Assay is a competition between endogenous cAMP and exogenously added biotin-cAMP. The capture of cAMP is achieved by using a specific antibody conjugated to acceptor beads.
A stable transfected cell line and a high expressing clone were selected for screening. The cells were grown at 5% CO2 in DMEM, 5% FCS, 1% Pen/Strep (Penicillin/Streptomycin) and 0.5 mg/ml of the selection marker G418.
Cells at approximately 80% confluence were washed 2× with PBS and harvested with Versene (aqueous solution of the tetrasodium salt of ethylenediaminetetraacetic acid), centrifuged 5 min at 1000 rpm and the supernatant removed. The additional steps were all performed on ice. The cell pellet was homogenised by the Ultrathurax for 20-30 s in 10 ml of Buffer 1 (20 mM Na-HEPES, 10 mM EDTA, pH=7.4), centrifuged 15 min at 20,000 rpm and the pellet resuspended in 10 ml of Buffer 2 (20 mM Na-HEPES, 0.1 mM EDTA, pH=7.4). The suspension was homogenised for 20-30 s and centrifuged 15 min at 20,000 rpm. Suspension in Buffer 2, homogenisation and centrifugation was repeated once and the membranes were resuspended in Buffer 2. The protein concentration was determined and the membranes stored at −80° C. until use.
The assay was performed in flat-bottom 96-well plates (Costar cat. no:3693). The final volume per well was 50 μl.
AlphaScreen cAMP Assay Kit from Perkin Elmer Life Sciences (cat. No: 6760625M); containing Anti-cAMP Acceptor beads (10 U/μl), Streptavidin Donor beads (10 U/μl) and Biotinylated-cAMP (133 U/μl).
AlphaScreen Buffer, pH=7.4: 50 mM TRIS-HCl (Sigma, cat.no: T3253); 5 mM HEPES (Sigma, cat.no: H3375); 10 mM MgCl2, 6H2O (Merck, cat.no: 5833); 150 mM NaCl (Sigma, cat.no: S9625); 0.01% Tween (Merck, cat.no: 822184). The following was added to the AlphaScreen Buffer prior to use (final concentrations indicated): BSA (Sigma, cat. no. A7906): 0.1%; IBMX (Sigma, cat. no. 15879): 0.5 mM; ATP (Sigma, cat. no. A7699): 1 mM; GTP (Sigma, cat. no. G8877): 1 uM.
cAMP standard (dilution factor in assay=5): cAMP Solution: 5 μL of a 5 mM cAMP-stock+495 μL AlphaScreen Buffer.
Membranes were prepared from hGLP-1/BHK 467-12A cells with a concentration of 6 μg/well corresponding to 0.6 mg/ml (the amount of membranes used pr. well may vary)
“No membranes”: Acceptor Beads (15 μg/ml final) in AlphaScreen buffer
“6 μg/well membranes”: membranes+Acceptor Beads (15 μg/ml final) in AlphaScreen buffer
An aliquot (10 μl) of “No membranes” was added to the cAMP standard (per well in duplicate wells) and the positive and negative controls
An aliquot (10 μl) of “6 μg/well membranes” was added to GLP-1 and analogues (per well in duplicate or triplicate wells)
Pos. Control: 10 μl “no membranes”+10 μl AlphaScreen Buffer
Neg. Control: 10 μl “no membranes”+10 μl cAMP Stock Solution (50 μM)
As the beads are sensitive to direct light, any handling was in the dark (as dark as possible), or in green light. All dilutions were made on ice.
1. Make the AlphaScreen Buffer.
2. Dissolve and dilute the GLP-1/Analogues/cAMP standard in AlphaScreen Buffer.
3. Make the Donor Beads Solution by mixing streptavidin donor beads (2 units/well) and biotinylated cAMP (1.2 units/well) and incubate 20-30 min in the dark at room temperature
4. Add the cAMP/GLP-1/Analogues to the plate: 10 μl per well.
5. Prepare membrane/Acceptor Beads solution and add this to the plates: 10 μl per well.
6. Add the Donor Beads: 30 μl per well.
7. Wrap the plate in aluminum foil and incubate on the shaker for 3 hours (very slowly) at RT.

T1 sequence (P43220 24-463): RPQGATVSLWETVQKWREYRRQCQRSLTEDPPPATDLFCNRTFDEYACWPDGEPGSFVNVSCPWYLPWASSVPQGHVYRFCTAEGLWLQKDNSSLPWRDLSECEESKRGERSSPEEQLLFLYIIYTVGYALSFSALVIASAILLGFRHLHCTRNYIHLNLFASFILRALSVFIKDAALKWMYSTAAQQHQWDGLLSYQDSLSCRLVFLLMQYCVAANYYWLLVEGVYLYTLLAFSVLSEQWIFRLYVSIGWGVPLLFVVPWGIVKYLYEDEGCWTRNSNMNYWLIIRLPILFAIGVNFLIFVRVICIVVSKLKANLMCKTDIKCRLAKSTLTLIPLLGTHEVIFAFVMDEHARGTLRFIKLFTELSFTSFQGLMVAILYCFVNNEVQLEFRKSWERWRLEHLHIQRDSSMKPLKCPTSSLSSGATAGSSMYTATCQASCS

| EC50 (cAMP formation in membranes from BHK467-12A cells expressing human GLP-1 receptor, read-out: In vitro potency (AlphaScreen) EC50) | SMILES | EC50 |
| --- | --- | --- |
| – | CC[C@H](C)[C@H](NC(=O)[C@H](Cc1ccccc1)NC(=O)[C@H](CCC(=O)O)NC(=O)[C@H](CCCCNC(=O)[C@@H](N)CCCCNC(=O)[C@@H](N)CCCCNC(=O)CC[C@H](NC(=O)CCCCCCCNC(=O)CCCCCCCCCOc1ccc(C(=O)O)cc1)C(=O)O)NC(=O)[C@H](C)NC(=O)[C@H](C)NC(=O)[C@H](CCC(N)=O)NC(=O)CNC(=O)[C@H](CCC(=O)O)NC(=O)[C@H](CC(C)C)NC(=O)[C@H](Cc1ccc(O)cc1)NC(=O)[C@H](CO)NC(=O)[C@H](CO)NC(=O)[C@@H](NC(=O)[C@H](CC(=O)O)NC(=O)[C@H](CO)NC(=O)[C@@H](NC(=O)[C@H](Cc1ccccc1)NC(=O)[C@@H](NC(=O)CNC(=O)[C@H](CCC(=O)O)NC(=O)C(C)(C)NC(=O)[C@@H](N)Cc1c[nH]cn1)[C@@H](C)O)[C@@H](C)O)C(C)C)C(=O)N[C@@H](C)C(=O)N[C@@H](Cc1c[nH]c2ccccc12)C(=O)N[C@@H](CC(C)C)C(=O)N[C@H](C(=O)N[C@@H](CCCNC(=N)N)C(=O)NCC(=O)N[C@@H](CCCNC(=N)N)C(=O)N[C@@H](CCCCNC(=O)[C@@H](N)CCCCNC(=O)[C@@H](N)CCCCNC(=O)CC[C@H](NC(=O)CCCCCCCNC(=O)CCCCCCCCCOc1ccc(C(=O)O)cc1)C(=O)O)C(=O)O)C(C)C [Example 26, N^ε26-[(2S)-2-amino-6-[[(2S)-2-amino-6-[[(4S)-4-carboxy-4-[8-[10-(4-carboxyphenoxy)decanoylamino]octanoylamino]butanoyl]amino]hexanoyl]amino]hexanoyl], N^ε37-[(2S)-2-amino-6-[[(2S)-2-amino-6-[[(4S)-4-carboxy-4-[8-[10-(4-carboxyphenoxy)decanoylamino]octanoylamino]butanoyl]amino]hexanoyl]amino]hexanoyl]-[Aib^8,Arg^34,Lys^37]-GLP-1-(7-37)-peptide] | 0.135 nM |
| – | CC[C@H](C)[C@H](NC(=O)[C@H](Cc1ccccc1)NC(=O)[C@H](CCC(=O)O)NC(=O)[C@H](CCCCNC(=O)[C@@H](N)CCCCNC(=O)COCCOCCNC(=O)COCCOCCNC(=O)CC[C@H](NC(=O)CCCCCCCCCOc1ccc(C(=O)O)cc1)C(=O)O)NC(=O)[C@H](C)NC(=O)[C@H](C)NC(=O)[C@H](CCC(N)=O)NC(=O)[C@H](CCC(=O)O)NC(=O)[C@H](CCC(=O)O)NC(=O)[C@H](CC(C)C)NC(=O)[C@H](Cc1ccc(O)cc1)NC(=O)[C@H](CO)NC(=O)[C@H](CO)NC(=O)[C@@H](NC(=O)[C@H](CC(=O)O)NC(=O)[C@H](CO)NC(=O)[C@@H](NC(=O)[C@H](Cc1ccccc1)NC(=O)[C@@H](NC(=O)CNC(=O)[C@H](CCC(=O)O)NC(=O)C(C)(C)NC(=O)[C@@H](N)Cc1c[nH]cn1)[C@@H](C)O)[C@@H](C)O)C(C)C)C(=O)N[C@@H](C)C(=O)N[C@@H](Cc1c[nH]c2ccccc12)C(=O)N[C@@H](CC(C)C)C(=O)N[C@H](C(=O)N[C@@H](CCC(N)=O)C(=O)NCC(=O)N[C@@H](CCCNC(=N)N)C(=O)N[C@@H](CCCCNC(=O)[C@@H](N)CCCCNC(=O)COCCOCCNC(=O)COCCOCCNC(=O)CC[C@H](NC(=O)CCCCCCCCCOc1ccc(C(=O)O)cc1)C(=O)O)C(=O)O)C(C)C [Example 18] (H-H[Aib]EGTFTSDVSSYLEEQAAK([εLys-AEEA-AEEA-γGlu-Decanoyl(10-(4-HOOC-PhO))])EFIAWLVQGRK([εLys-AEEA-AEEA-γGlu-Decanoyl(10-(4-HOOC-PhO))])-OH; N-terminus and C-terminus assumed) | 0.075 nM |
| 0.385 nM | CC[C@H](C)[C@H](NC(=O)[C@H](Cc1ccccc1)NC(=O)[C@H](CCC(=O)O)NC(=O)[C@H](CCCCNC(=O)[C@@H](N)CCCCNC(=O)CC[C@H](NC(=O)CC[C@H](NC(=O)CC[C@H](NC(=O)CCCCCCCCCCCCCCC(=O)O)C(=O)O)C(=O)O)C(=O)O)NC(=O)[C@H](C)NC(=O)[C@H](C)NC(=O)[C@H](CCC(N)=O)NC(=O)CNC(=O)[C@H](CCC(=O)O)NC(=O)[C@H](CC(C)C)NC(=O)[C@H](Cc1ccc(O)cc1)NC(=O)[C@H](CO)NC(=O)[C@H](CO)NC(=O)[C@@H](NC(=O)[C@H](CC(=O)O)NC(=O)[C@H](CO)NC(=O)[C@@H](NC(=O)[C@H](Cc1ccccc1)NC(=O)[C@@H](NC(=O)CNC(=O)[C@H](CCC(=O)O)NC(=O)C(C)(C)NC(=O)[C@@H](N)Cc1c[nH]cn1)[C@@H](C)O)[C@@H](C)O)C(C)C)C(=O)N[C@@H](C)C(=O)N[C@@H](Cc1c[nH]c2ccccc12)C(=O)N[C@@H](CC(C)C)C(=O)N[C@H](C(=O)N[C@@H](CCCNC(=N)N)C(=O)NCC(=O)N[C@@H](CCCNC(=N)N)C(=O)N[C@@H](CCCCNC(=O)[C@@H](N)CCCCNC(=O)CC[C@H](NC(=O)CC[C@H](NC(=O)CC[C@H](NC(=O)CCCCCCCCCCCCCCC(=O)O)C(=O)O)C(=O)O)C(=O)O)C(=O)O)C(C)C [Example 13, N^ε26-[(2S)-2-amino-6-[[(4S)-4-carboxy-4-[[(4S)-4-carboxy-4-[[(4S)-4-carboxy-4-(15-carboxypentadecanoylamino)butanoyl]amino]butanoyl]amino]butanoyl]amino]hexanoyl], N^ε37-[(2S)-2-amino-6-[[(4S)-4-carboxy-4-[[(4S)-4-carboxy-4-[[(4S)-4-carboxy-4-(15-carboxypentadecanoylamino)butanoyl]amino]butanoyl]amino]butanoyl]amino]hexanoyl]-[Aib^8,Arg^34,Lys^37]-GLP-1-(7-37)-peptide] | – |
| – | CC[C@H](C)[C@H](NC(=O)[C@H](Cc1ccccc1)NC(=O)[C@H](CCC(=O)O)NC(=O)[C@H](CCCCNC(=O)[C@@H](N)CCCCNC(=O)COCCOCCNC(=O)COCCOCCNC(=O)CC[C@H](NC(=O)CCCCCCCCCOc1ccc(C(=O)O)cc1)C(=O)O)NC(=O)[C@H](C)NC(=O)[C@H](C)NC(=O)[C@H](CCC(N)=O)NC(=O)CNC(=O)[C@H](CCC(=O)O)NC(=O)[C@H](CC(C)C)NC(=O)[C@H](Cc1ccc(O)cc1)NC(=O)[C@H](CO)NC(=O)[C@H](CO)NC(=O)[C@@H](NC(=O)[C@H](CC(=O)O)NC(=O)[C@H](CO)NC(=O)[C@@H](NC(=O)[C@H](Cc1ccccc1)NC(=O)[C@@H](NC(=O)CNC(=O)[C@H](CCC(=O)O)NC(=O)C(C)(C)NC(=O)[C@@H](N)Cc1c[nH]cn1)[C@@H](C)O)[C@@H](C)O)C(C)C)C(=O)N[C@@H](C)C(=O)N[C@@H](Cc1c[nH]c2ccccc12)C(=O)N[C@@H](CC(C)C)C(=O)N[C@H](C(=O)N[C@@H](CCCNC(=N)N)C(=O)NCC(=O)N[C@@H](CCCNC(=N)N)C(=O)N[C@@H](CCCCNC(=O)[C@@H](N)CCCCNC(=O)COCCOCCNC(=O)COCCOCCNC(=O)CC[C@H](NC(=O)CCCCCCCCCOc1ccc(C(=O)O)cc1)C(=O)O)C(=O)O)C(C)C [Example 5] | 0.033 nM |
